Results from US10202408B2, “Prodrugs and methods of use thereof” (Health Innovation Ventures B.V., priority 2012, dated 2019).

Assays:
[1] = test system: bacterial nitroreductases from the NfsA and NfsB families; assay: GFP SOS assay with nitroreductase over-expression library; format: cell-based, E. coli strain SOS-R4; settings: 55 candidate nitroreductase library, 6 h challenge
Description: The method employed the over-expression of a candidate nitroreductase gene from plasmid pUCX in an SOS reporter strain, as first described in Prosser et al., 2010, Biochem Pharmacol 79, 678-687. In order to enhance the sensitivity of the SOS reporter system, an sfiA::GFP reporter construct was integrated into a CDF-based plasmid (which contains a compatible origin of replication with pUCX) to give the pANODuet reporter plasmid for GFP screening. In addition, nfsA, nfsB, azoR, and nemA genes were deleted to minimise background metabolism, and the tolC gene deleted to minimise efflux of test compounds; this strain was designated SOS-R3. Further improvements were obtained by deleting the mdaB, ycaK, and yieF genes to minimise background metabolism, and by introducing transcriptional terminators to the pANODUET reporter plasmid. This final reporter strain was designated SOS-R4.
Stored glycerols of the 55-membered nitroreductase library in SOS-R4 were thawed and used to inoculate overnight cultures (Lysogeny Broth (LB) amended with 100 μg ml^−1 Ampicillin, 50 μg ml^−1 Spectinomycin, 0.4% glucose) that were incubated at 30° C., 200 rpm for 16 h. The next morning the GFP-SOS assay was commenced by inoculation of 195 μl fresh assay media (LB+100 μg ml^−1 Ampicillin, 50 μg ml^−1 Spectinomycin, 0.2% glucose, 50 μM IPTG) with 15 μl of overnight culture in individual wells of a 96-well plate. Plates were incubated at 30° C., 200 rpm for 2.5 h (pre-challenge period), following which cultures were diluted 1:2 by splitting 50:50 into fresh assay media (+DMSO to 0.5% final concentration) and fresh challenge media (assay media+drug to desired concentration, DMSO to 0.5% final concentration) to final volumes of 80 μl apiece in duplicate on a 384-well plate. Plates were incubated at 30° C., 200 rpm for 6 h (challenge period). GFP expression was determined at excitation 488 nm/emission 509 nm. Turbidity was determined by OD600 and fluorescence data from any replicates not found to be within 15% of the median culture turbidity were discarded.

[2] = test system: bacterial nitroreductases from the NfsA and NfsB families; assay: as above; format: cell-based, E. coli strain SOS-R4; settings: single and poly mutated variants of NfsA_Ec, single-mutated variant of NfsA_Bs
[3] = test system: HCT116 cells engineered to over-express human aldo-ketoreductase 1C3 (AKR1C3); assay: Low cell density IC50 (SRB) assay, HCT116 wild type versus AKR1C3 over-expressing cells; format: cell-based; settings: 4 h exposure
Experimental: (§1) Compounds were subjected to testing, including low-cell density cytotoxicity assay. Cells (500 cells/well) were seeded in 96-well plates and exposed to prodrug for 4 h, washed, then left to grow for a further 5 days. The SRB assay was employed to determine IC50 values (concentration of prodrug required to inhibit proliferation by 50%). Parental HCT116 cells (HCT116 is a cell line derived from human colon cancer) and cells expressing the example nitroreductase gene nfsA from Escherichia coli were evaluated head-to-head. Parental H1299 cells (H1299 is a cell line derived from lung cancer) and cells expressing the example nitroreductase gene nfsA from Escherichia coli were evaluated head-to-head. Parental HCT116 cells and cells expressing human AKR1C3 were evaluated head-to-head. Parental H1299 cells and cells expressing human AKR1C3 were evaluated head-to-head. In a variation of these assays test compounds were assessed for their ability to give hypoxia-selective cell killing. Here wild type HCT116, H460 (H460 is a cell line derived from lung cancer), H1299 and SiHa cells (SiHa is a cell line derived from cervical cancer) were used in addition to HCT116 cells engineered to over express cytochrome P450 reductase (HCT116 POR), a human one-electron nitroreductase. Low-cell density cytotoxicity assays were performed as above under oxic conditions and compared to experiments where cells were shown 4 h of anoxia during the prodrug exposure period, before being washed free of prodrug and then left to grow for a further 5 days under oxic conditions, as above.

[4] = test system: H1299 cells engineered to over-express human aldo-ketoreductase 1C3 (AKR1C3); assay: Low cell density IC50 (SRB) assay, H1299 wild type versus AKR1C3 over-expressing cells; format: cell-based; settings: 4 h exposure
Experimental: as §1

[5] = test system: HCT116 cells engineered to over-express E coli NfsA; assay: Low cell density IC50 (SRB) assay, HCT116 wild type versus E coli NfsA over-expressing cells; format: cell-based, human
Experimental: as §1

[6] = test system: 15% E coli NfsA-expressing H1299 xenografts; assay: Tumour growth delay, 15% E coli NfsA-expressing H1299 xenografts; format: in vivo, NIH-III mice; settings: for E coli NfsA mediated anti-tumour efficacy (mean tumour volume): 500 umol/kg twice daily (BID), total 1000 umol/kg; for tumour growth delay: mixed HCT116 and H1299 xenografts, 15% E coli NfsA cells, single (or BID) intraperitoneal dose
Experimental: Animals weighed 18-25 g at the time of tumour inoculation. Tumours were grown subcutaneously on the right flank of mice by inoculating cells grown in tissue culture (1×10^7 cells in 100 uL serum free α-MEM). Tumour sizes were monitored three times weekly using electronic callipers and treatments were initiated once tumour diameter reached ≥7 mm.
Tumour bearing mice were randomised into the appropriate treatment groups and tumour size and body weight recorded. Test compounds were formulated on the day of the experiment and kept in foil-wrapped tubes out of direct fluorescent light. If recruitment of animals occurred over multiple days, the drug stocks were aliquoted into tubes and frozen once at […] until required. Mice were treated with a single (or BID) dose of prodrug by intraperitoneal injection and thereafter tumour size and body weight was monitored every second day. Tumour volume was calculated as π (l×w×w)/6, where l is the major axis and w is the perpendicular minor axis. Animals were culled when they had reached the appropriate survival endpoint or when body weight loss exceeded 20% of the pre-treatment value.

[7] = test system: HCT116 MCLs with 3% E coli NfsA-expressing cells; assay: MCL clonogenic bystander assay, HCT116 MCLs seeded with 3% E coli NfsA-expressing cells; format: cell-based, human; settings: 97% wild type HCT116, 3% E coli NfsA-expressing cells
Experimental: (§2) In parallel, a three dimensional high-cell density multi-cellular layer (MCL) clonogenic assay was performed. 1×10^6 cells of either 100% HCT-116^WT or containing 97% WT with a minor 3% HCT-116^NTR cell population were seeded into a collagen-coated Teflon microporous membrane and left to grow for 3 days. MCLs were then exposed to prodrug for 5 h. After treatment, MCLs were enzyme dissociated, diluted in fresh medium and plated to determine clonogenic survival. To discriminate clonogenic activator (NTR+) from target (NTR−) colonies, cells were plated in non-selective medium (total cells) and medium containing 1 μM puromycin (activator cells). Colonies were grown for 10 days before staining. Colonies containing >50 cells were counted. A variation of this assay was also used to assess for evidence of AKR1C3-dependent cytotoxicity. Here either 100% HCT-116W^T or 100% HCT-116^AKR1C3 cells were seeded to provide MCLs that were then exposed to prodrug.

[8] = test system: H1299 cells engineered to over-express E coli NfsA; assay: Low cell density IC50 (SRB) assay, H1299 wild type versus E coli NfsA over-expressing cells; format: cell-based, human
Experimental: as §1

[9] = test system: HCT116 MCLs over-expressing AKR1C3; assay: Multicellular layer (MCL) clonogenic assay, HCT116 wild type versus AKR1C3 over-expressing MCLs; format: cell-based, human
Experimental: as §2

[10] = test system: HCT116, H460, H1299 and SiHa wild type cancer cell lines; assay: Oxic versus anoxic low cell density IC50 assay, wild type cancer cell lines; format: cell-based, human; settings: 4 h anoxia during prodrug exposure versus oxic
Experimental: as §1

[11] = test system: wild type SiHa tumour xenografts; assay: Excision assay with and without radiation, wild type SiHa tumour xenografts; format: in vivo, NIH-III nude mice
Experimental: Tumours were grown subcutaneously in the flank of NIH-III mice by inoculating cells grown in tissue culture. Tumours were monitored using electronic calipers. When tumours reached treatment size, mice were randomized to treatment groups (five to seven per group). Compounds were given as single (or BID) intraperitoneal doses alone or 5 min after whole body irradiation (^60Co source). Eighteen hours after treatment, tumours were excised, weighed, minced, dissociated enzymatically, and plated to determine clonogenicity. Clonogens/gram of tissue were calculated relative to controls and effects of treatment were tested for significance (ANOVA with Dunnett's).

SMILES	metabolism by bacterial nitroreductases (SOS response) [1]	activity with mutated nitroreductase variants [2]	AKR1C3-mediated cytotoxicity (IC50 wild type versus AKR1C3) [3]	AKR1C3-mediated cytotoxicity (IC50 wild type versus AKR1C3) [4]	E coli NfsA-mediated cytotoxicity (IC50 wild type versus NfsA) [5]	E coli NfsA mediated anti-tumour efficacy (mean tumour volume) [6]	tumour growth delay [6]	bystander cell killing in MCLs [7]	E coli NfsA-mediated cytotoxicity (IC50 wild type versus NfsA) [8]	AKR1C3-dependent clonogenic cell kill in MCLs [9]	hypoxia-dependent cytotoxicity [10]	cell killing in combination with radiation versus radiation alone ([11]; HCT116 POR and wild type SiHa xenografts, 10 or 15Gy, single (or BID) intraperitoneal dose)	hypoxic cell kill in vivo (log cell kill) ([11]; with or without 10Gy radiation, 22 at 422, 300 and 11 at 1330, 23 at 1000 umol/kg)
CCN1CCN(C(=O)c2cc(N(CCBr)CCBr)c(S(=O)(=O)CC)cc2[N+](=O)[O-])CC1 [compound 26, (5-(bis(2-bromoethyl)amino)-4-(ethylsulfonyl)-2-nitrophenyl)(4-ethylpiperazin-1-yl)methanone]	substrates for multiple wild type and mutant bacterial nitroreductases from the NfsA and NfsB families	demonstrated	less susceptible to AKR1C3-mediated cytotoxicity than PR-104A	less susceptible to AKR1C3-mediated cytotoxicity than PR-104A	produce E coli NfsA-mediated cytotoxicity	display significant E coli NfsA mediated anti-tumour efficacy	profound tumour growth delay	display evidence of metabolism by the 3% E coli NfsA-expressing cells with bystander cell killing of the 97% non-expressing neighbour cells	produce E coli NfsA-mediated cytotoxicity	do not cause AKR1C3-dependant cytotoxicity	–	–	–
CCS(=O)(=O)c1cc([N+](=O)[O-])c(C(=O)N(C)CCO)cc1N(CCBr)CCBr [compound 18, 5-(bis(2-bromoethyl)amino)-4-(ethylsulfonyl)-N-(2-hydroxyethyl)-N-methyl-2-nitrobenzamide]	substrates for multiple wild type and mutant bacterial nitroreductases from the NfsA and NfsB families	demonstrated	less susceptible to AKR1C3-mediated cytotoxicity than PR-104A	–	produce E coli NfsA-mediated cytotoxicity	–	–	display evidence of metabolism by the 3% E coli NfsA-expressing cells with bystander cell killing of the 97% non-expressing neighbour cells	produce E coli NfsA-mediated cytotoxicity	do not cause AKR1C3-dependant cytotoxicity	increased cytotoxicity in cells under hypoxia	–	–
CS(=O)(=O)c1cc([N+](=O)[O-])c(C(=O)NCCO)cc1N(CCBr)CCBr [compound 301, 5-(bis(2-bromoethyl)amino)-N-(2-hydroxyethyl)-4-(methylsulfonyl)-2-nitrobenzamide]	–	–	–	–	–	–	–	–	–	–	increased cytotoxicity in cells under hypoxia	–	–
CCN1CCN(C(=O)c2cc(N(CCBr)CCBr)c(S(C)(=O)=O)cc2[N+](=O)[O-])CC1 [compound 23, (5-(bis(2-bromoethyl)amino)-4-(methylsulfonyl)-2-nitrophenyl)(4-ethylpiperazin-1-yl)methanone]	substrates for multiple wild type and mutant bacterial nitroreductases from the NfsA and NfsB families	demonstrated	less susceptible to AKR1C3-mediated cytotoxicity than PR-104A	less susceptible to AKR1C3-mediated cytotoxicity than PR-104A	produce E coli NfsA-mediated cytotoxicity	display significant E coli NfsA mediated anti-tumour efficacy	profound tumour growth delay	display evidence of metabolism by the 3% E coli NfsA-expressing cells with bystander cell killing of the 97% non-expressing neighbour cells	produce E coli NfsA-mediated cytotoxicity	do not cause AKR1C3-dependant cytotoxicity	–	increased cell killing above what could be achieved with radiation alone	significant hypoxic cell kill in vivo
CCS(=O)(=O)c1cc([N+](=O)[O-])c(C(=O)N2CCN(C)CC2)cc1N(CCBr)CCBr [compound 25, (5-(bis(2-bromoethyl)amino)-4-(ethylsulfonyl)-2-nitrophenyl)(4-methylpiperazin-1-yl)methanone]	substrates for multiple wild type and mutant bacterial nitroreductases from the NfsA and NfsB families	demonstrated	less susceptible to AKR1C3-mediated cytotoxicity than PR-104A	less susceptible to AKR1C3-mediated cytotoxicity than PR-104A	produce E coli NfsA-mediated cytotoxicity	–	–	display evidence of metabolism by the 3% E coli NfsA-expressing cells with bystander cell killing of the 97% non-expressing neighbour cells	produce E coli NfsA-mediated cytotoxicity	do not cause AKR1C3-dependant cytotoxicity	–	–	–
